Results taken from US10781262B2, “Combination therapy of T cell activating bispecific antigen binding molecules and PD-1 axis binding antagonists” (Hoffmann-La Roche Inc., priority 2014, dated 2020).
Read-outs that look alike come from different tables or passages of the source.

Columns and labels:
[1] = test system: primary CD34+ AML cells from relapsed/refractory patients; test: Cytotoxic activity on primary AML cells, CellTiter-Glo; assay type: cell-based, human; settings: Fab-PE24 constructs, 3 days; for IC50: Homo sapiens, 72 h
Description: CD34^+ cells from peripheral blood of relapsed/refractory patients were obtained from AllCells, LLC, Alameda, Calif. […] (see FIG. 31).
(§1) Cycloheximide was used as positive control.

[2] = test system: recombinant CHO K1 stabile expressing human TIM-3; test: Cytotoxic activity, CellTiter-Glo Luminescent Cell Viability Assay; assay type: cell-based; settings: CHO-K1, 72 h; sandwich format: mouse Fcγ antibodies + mouse Fcγ specific Fabs conjugated with PE 24, 3 days
TF-1 = test: as above; assay type: cell-based; settings: Fab-PE24 constructs
Description: as §1

CMK = test: as above; assay type: cell-based; settings: Fab-PE24 constructs
Description: as §1

Karpas-299 = test: as above; assay type: cell-based; settings: Fab-PE24 constructs
Description: as §1

MOLM-13 = test: as above; assay type: cell-based; settings: Fab-PE24 constructs
Description: as §1

Pfeiffer cells = test: as above; settings: for IC50: Homo sapiens, Pfeiffer
Procedure: (§2) Treatment ranges from 10 μg/ml to 1 ng/ml in triplicate. All antibodies were used as full length mouse Fcγ versions. For conjugation of the conjugation of the Pseudomonas exotoxin 10 μg/ml of mouse Fcγ fragment specific Fabs conjugated with PE 24 were added and incubated for 3 days at 37° C. Cycloheximide as a known protein synthesis inhibitor in eukaryotes was used as positive control. Viability of treated cells were measured with Promega CellTiter-Glo Luminescent Cell Viability Assay.
(§3) The cytotoxic activity was calculated as follow: Rel. Inhibition [%]=(1−(Esampel−E negative control)/(E positive control−E negative control))*100
(§4) All antibodies were used as full length human IgG1 format including the human Fcgamma part. In this experiment conjugation of the Pseudomonas exotoxin was achieved via human Fcγ fragment specific Fabs conjugated with PE 24 (10 μg/ml) which were added and incubated for 5 days at 37° C.
(§5) The cytotoxic activity was analysed with Promega CellTiter-Glo Luminescent Cell Viability Assay as described above. 1:5 serial dilutions of Fab-fragments of disclosed anti-TIM3 antibodies directly conjugated to PE24 with the highest concentration of 50 μg/ml or appropriate media to untreated cells or non-binding anti-PSMA Fab-PE24 control to untargeted treated cells were incubated with 7.5×10^3 Pfeiffer cells or 2×10^3 RPMI-8226 cells (50 μl/well in […]) for 4 days at 37° C. Treatment ranges from 50 μg/ml to 8 ng/ml in triplicate. Cycloheximide was used as positive control.
(§6) The evaluation of cytotoxic activity of sortase coupled Fab-PE24 constructs of selected disclosed anti-TIM3 antibodies was analysed with Promega CellTiter-Glo Luminescent Cell Viability Assay as described above in Example 28.

RPMI-8226 cells = test: as above; settings: for IC50: Homo sapiens
Procedure: as §2, §3, §4, §5, §6

human FolR2 = human FolR2 (Homo sapiens, UniProt P14207); settings: IgG injected for 60 seconds at 500 nM
Procedure: (§7) Binding of FolR1 binders as IgG or in the T-cell bispecific format to different recombinant folate receptors (human FolR1, 2 and 3, murine FolR1 and cynomolgus FolR1; all as Fc fusions) was assessed by surface plasmon resonance (SPR). All SPR experiments were performed on a Biacore T200 at 25° C. with HBS-EP as running buffer (0.01 M HEPES pH 7.4, 0.15 M NaCl, 3 mM EDTA, 0.005% Surfactant P20, Biacore, Freiburg/Germany).
(§8) First the anti-FolR1 IgGs were analyzed by single injections (Table 1) to characterize their crossreactivity (to human, murine and cyno FolR1) and specificity (to human FolR1, human FolR2, human FolR3). Recombinant biotinylated monomeric Fc fusions of human, cynomolgus and murine Folate Receptor 1 (FolR1-Fc) or human Folate Receptor 2 and 3 (FolR2-Fc, FolR3-Fc) were directly coupled on a SA chip using the standard coupling instruction (Biacore, Freiburg/Germany). The immobilization level was about 300-400 RU. The IgGs were injected for 60 seconds at a concentration of 500 nM.

human FolR3 = human FolR3 (Homo sapiens, UniProt P41439); settings: IgG injected for 60 seconds at 500 nM
Procedure: as §7, §8

human FolR1 = human FolR1 (Homo sapiens, UniProt P15328); settings: IgG injected for 60 seconds at 500 nM
Procedure: as §7, §8

cynomolgus FolR1 = settings: IgG injected for 60 seconds at 500 nM
Procedure: as §7, §8

murine FolR1 = murine FolR1 (Mus musculus, UniProt P35846); settings: IgG injected for 60 seconds at 500 nM
Procedure: as §7, §8

[3] = molecular target: cyno Folate Receptor 1 Fc fusion; settings: monovalent binding (affinity), analyte cyFolR1
Procedure: as §7
(§9) For affinity measurement, direct coupling of around 6000-7000 resonance units (RU) of the anti-human Fab specific antibody (Fab capture kit, GE Healthcare) was performed on a CM5 chip at pH 5.0 using the standard amine coupling kit (GE Healthcare). Anti-FolR1 IgGs or T cell bispecifics were captured at 20 nM with a flow rate of 10 μl/min for 20 or 40 sec, the reference flow cell was left without capture. Dilution series (6.17 to 500 nM or 12.35 to 3000 nM) of human or cyno Folate Receptor 1 Fc fusion were passed on all flow cells at 30 μl/min for 120 or 240 sec to record the association phase. The dissociation phase was monitored for 240 s and triggered by switching from the sample solution to HBS-EP. The chip surface was regenerated after every cycle using a double injection of 60 sec 10 mM Glycine-HCl pH 2.1 or pH 1.5. Bulk refractive index differences were corrected for by subtracting the response obtained on the reference flow cell 1. The affinity constants for the interactions were derived from the rate constants by fitting to a 1:1 Langmuir binding using the Bia Evaluation software (GE Healthcare).

[4] = molecular target: human Folate Receptor 1 Fc fusion (Homo sapiens, UniProt P15328); settings: monovalent binding (affinity), analyte huFolR1
Procedure: as §7, §9

[5] = test system: cynomolgus Folate Receptor 1 (FolR1-Fc); settings: bivalent binding (avidity), ligand cyFolR1
Procedure: as §7
The avidity of the interaction between the anti-FolR1 IgGs or T cell bispecifics and the recombinant folate receptors was determined as described below (Table 9). Recombinant biotinylated monomeric Fc fusions of human, cynomolgus and murine Folate Receptor 1 (FolR1-Fc) were directly coupled on a SA chip using the standard coupling instruction (Biacore, Freiburg/Germany). The immobilization level was about 300-400 RU. The anti-FolR1 IgGs or T cell bispecifics were passed at a concentration range from 2.1 to 500 nM with a flow of 30 μL/minutes through the flow cells over 180 seconds. The dissociation was monitored for 600 seconds. […] The binding curves resulting from the bivalent binding of the IgGs or T cell bispecifics were approximated to a 1:1 Langmuir binding and fitted with that model (which is not correct, but gives an idea of the avidity). The apparent avidity constants for the interactions were derived from the rate constants of the fitting using the Bia Evaluation software (GE Healthcare).

[6] = molecular target: T1, human Folate Receptor 1 (FolR1-Fc) (Homo sapiens, UniProt P15328); test: SPR avidity to Folate Receptor 1 (bivalent binding); settings: bivalent binding (avidity), ligand huFolR1
T1 construct: the extracellular domain of the antigen linked to the hinge region of Fc-knob; made in house; host or cells: HEK293 EBNA
Description: The immobilization level was about 300-400 RU. […] The dissociation was monitored for 600 seconds.

[7] = Fab-PE24 construct vs. total IgG-Amatoxin conjugate
[8] = sortase coupled Fab-PE24 constructs
[9] = human IgG1 format + human Fcγ specific Fabs conjugated with PE 24, 5 days

Chain of cyno Folate Receptor 1 Fc fusion (as listed by the source): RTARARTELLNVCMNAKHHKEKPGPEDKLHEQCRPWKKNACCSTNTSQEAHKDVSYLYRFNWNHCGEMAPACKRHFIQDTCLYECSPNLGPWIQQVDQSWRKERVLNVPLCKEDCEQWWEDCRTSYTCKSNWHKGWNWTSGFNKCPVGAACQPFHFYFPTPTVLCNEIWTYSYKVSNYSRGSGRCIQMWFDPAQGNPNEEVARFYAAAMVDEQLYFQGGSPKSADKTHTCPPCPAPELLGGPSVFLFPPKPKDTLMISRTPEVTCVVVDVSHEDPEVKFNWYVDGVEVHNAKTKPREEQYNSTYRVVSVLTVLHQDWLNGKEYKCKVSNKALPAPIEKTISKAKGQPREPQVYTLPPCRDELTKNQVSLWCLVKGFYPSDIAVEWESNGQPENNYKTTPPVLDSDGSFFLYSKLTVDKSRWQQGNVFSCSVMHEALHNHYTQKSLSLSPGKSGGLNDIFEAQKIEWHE
Chain of cyno Folate Receptor 1 Fc fusion (P01857 104-330 isoform P01857-1 Y232C/T249S/L251A/Y290V/H318R/Y319F partner): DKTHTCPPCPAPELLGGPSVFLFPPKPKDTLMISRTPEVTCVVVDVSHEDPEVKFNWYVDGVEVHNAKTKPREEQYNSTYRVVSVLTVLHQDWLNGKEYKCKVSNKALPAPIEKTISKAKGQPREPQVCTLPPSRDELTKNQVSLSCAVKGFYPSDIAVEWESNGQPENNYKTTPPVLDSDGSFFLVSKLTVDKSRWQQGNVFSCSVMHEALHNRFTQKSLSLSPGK
Chain of cynomolgus Folate Receptor 1 (FolR1-Fc) (as listed by the source): as the sequence (as listed by the source) above
Chain of cynomolgus Folate Receptor 1 (FolR1-Fc) (as listed by the source partner): as the sequence (P01857 104-330 isoform P01857-1 Y232C/T249S/L251A/Y290V/H318R/Y319F partner) above
T1 sequence (P15328 with tags, fused parts or gaps): as the sequence (as listed by the source) above, with T2I, R4W, K37R, P146A, Y171H counted along it
T1 sequence (P01857 104-330 isoform P01857-1 Y232C/T249S/L251A/Y290V/H318R/Y319F partner): as the sequence (P01857 104-330 isoform P01857-1 Y232C/T249S/L251A/Y290V/H318R/Y319F partner) above
Chain of human Folate Receptor 1 Fc fusion (P15328 with tags, fused parts or gaps): as the sequence (as listed by the source) above, with T2I, R4W, K37R, P146A, Y171H counted along it
Chain of human Folate Receptor 1 Fc fusion (P01857 104-330 isoform P01857-1 Y232C/T249S/L251A/Y290V/H318R/Y319F partner): as the sequence (P01857 104-330 isoform P01857-1 Y232C/T249S/L251A/Y290V/H318R/Y319F partner) above
Chain of murine FolR1 (P35846 with tags, fused parts or gaps): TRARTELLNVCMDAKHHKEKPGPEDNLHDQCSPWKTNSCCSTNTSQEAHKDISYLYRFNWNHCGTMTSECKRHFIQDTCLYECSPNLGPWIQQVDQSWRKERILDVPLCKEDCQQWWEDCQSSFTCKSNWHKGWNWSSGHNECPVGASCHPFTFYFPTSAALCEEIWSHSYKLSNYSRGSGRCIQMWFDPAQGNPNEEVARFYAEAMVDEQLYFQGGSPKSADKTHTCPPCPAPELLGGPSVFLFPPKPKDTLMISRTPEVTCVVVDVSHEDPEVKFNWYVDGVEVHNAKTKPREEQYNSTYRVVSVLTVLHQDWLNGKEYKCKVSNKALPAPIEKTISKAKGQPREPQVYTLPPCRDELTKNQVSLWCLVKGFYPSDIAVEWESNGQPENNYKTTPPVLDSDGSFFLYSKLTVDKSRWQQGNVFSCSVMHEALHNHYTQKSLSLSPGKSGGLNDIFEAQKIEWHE
Chain of murine FolR1 (as listed by the source partner): as the sequence (P01857 104-330 isoform P01857-1 Y232C/T249S/L251A/Y290V/H318R/Y319F partner) above
Chain of human FolR2 (P14207 with tags, fused parts or gaps): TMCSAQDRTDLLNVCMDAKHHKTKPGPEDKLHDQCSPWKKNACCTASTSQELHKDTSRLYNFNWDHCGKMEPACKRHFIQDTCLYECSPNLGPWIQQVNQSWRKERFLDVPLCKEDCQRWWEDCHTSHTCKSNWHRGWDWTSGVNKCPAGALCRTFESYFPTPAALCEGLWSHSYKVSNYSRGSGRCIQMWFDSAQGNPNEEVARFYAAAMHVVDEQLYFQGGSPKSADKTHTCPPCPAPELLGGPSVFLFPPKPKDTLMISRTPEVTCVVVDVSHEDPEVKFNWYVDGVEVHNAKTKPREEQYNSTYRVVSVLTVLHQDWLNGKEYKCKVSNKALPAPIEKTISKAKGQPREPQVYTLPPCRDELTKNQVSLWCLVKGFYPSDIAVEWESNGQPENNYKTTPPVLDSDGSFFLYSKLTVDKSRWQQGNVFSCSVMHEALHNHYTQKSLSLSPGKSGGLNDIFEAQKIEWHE
Chain of human FolR2 (P01857 104-330 isoform P01857-1 Y232C/T249S/L251A/Y290V/H318R/Y319F partner): as the sequence (P01857 104-330 isoform P01857-1 Y232C/T249S/L251A/Y290V/H318R/Y319F partner) above
Chain of human FolR1 (P15328 with tags, fused parts or gaps): as the sequence (as listed by the source) above, with T2I, R4W, K37R, P146A, Y171H counted along it
Chain of human FolR1 (P01857 104-330 isoform P01857-1 Y232C/T249S/L251A/Y290V/H318R/Y319F partner): as the sequence (P01857 104-330 isoform P01857-1 Y232C/T249S/L251A/Y290V/H318R/Y319F partner) above
Chain of cynomolgus FolR1 (as listed by the source): as the sequence (as listed by the source) above
Chain of human FolR3 (P41439 with tags, fused parts or gaps): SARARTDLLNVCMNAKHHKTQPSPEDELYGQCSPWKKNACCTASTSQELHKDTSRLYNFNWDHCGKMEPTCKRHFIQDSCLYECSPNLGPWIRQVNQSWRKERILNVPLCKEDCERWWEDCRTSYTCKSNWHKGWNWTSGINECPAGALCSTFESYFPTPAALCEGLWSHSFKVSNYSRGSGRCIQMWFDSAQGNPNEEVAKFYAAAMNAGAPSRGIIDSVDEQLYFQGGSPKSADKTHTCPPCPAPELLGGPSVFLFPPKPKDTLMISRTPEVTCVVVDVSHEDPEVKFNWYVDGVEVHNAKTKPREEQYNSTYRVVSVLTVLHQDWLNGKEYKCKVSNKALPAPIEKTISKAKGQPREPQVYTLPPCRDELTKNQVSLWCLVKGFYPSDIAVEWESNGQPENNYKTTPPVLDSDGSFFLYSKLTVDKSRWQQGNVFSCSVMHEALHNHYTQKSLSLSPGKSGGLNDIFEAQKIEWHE
Chain of human FolR3 (P01857 104-330 isoform P01857-1 Y232C/T249S/L251A/Y290V/H318R/Y319F partner): as the sequence (P01857 104-330 isoform P01857-1 Y232C/T249S/L251A/Y290V/H318R/Y319F partner) above

With `C[C@@H]1C[C@@H]([C@H](O)CC2CC(=O)NC(=O)C2)C(=O)[C@@H](C)C1` [Cycloheximide] the Max. killing ([1]; D1, AML CD34+ PB0136 cells) was 100 [%], the Max. killing ([1]; D2, AML CD34+ PB0142 cells) was 100 [%] and the Max. killing ([1]; D3, AML CD34+ PB0135 cells) was 100 [%]. For the same molecule, the Max. killing ([1]; D4, AML CD34+ PB0193 cells) was 100 [%], the IC50 ([1]; D1, AML CD34+ PB0136 cells) was 212 nM and the IC50 ([1]; D2, AML CD34+ PB0142 cells) was 262 nM. The IC50 ([1]; D3, AML CD34+ PB0135 cells) was 121 nM, the IC50 ([1]; D4, AML CD34+ PB0193 cells) was 208 nM and the IC50 [2] was 135 nM. The Max. killing (TF-1) was 100 [%], the IC50 (TF-1; Homo sapiens, TF-1) was 207 nM and the Max. killing (CMK) was 100 [%]. The IC50 (CMK; Homo sapiens, CMK) was 149 nM, the Max. killing (Karpas-299) was 100 [%] and the IC50 (Karpas-299; Homo sapiens, KARPAS-299) was 113 nM. The Max. killing (MOLM-13) was 100 [%], the IC50 (MOLM-13; Homo sapiens, MOLM-13) was 156 nM and the Max. killing (Pfeiffer cells; [7]) was 100 [%]. For the same molecule, the IC50 (Pfeiffer cells; 72 h, sandwich format: mouse Fcγ antibodies + mouse Fcγ specific Fabs conjugated with PE 24, 3 days) was 181 nM, the IC50 (Pfeiffer cells; 120 h, read-out: Rel. IC50, human IgG1 format + human Fcγ specific Fabs conjugated with PE 24, 5 days) was 271 nM and the IC50 (Pfeiffer cells; [7]) was 163 nM. For the same molecule, the IC50 (Pfeiffer cells; [8]) was 271 nM, the Max. killing (Pfeiffer cells; [9]) was 100 [%] and the Max. killing (Pfeiffer cells; [8]) was 100 [%]. For the same molecule, the Max. killing (RPMI-8226 cells; Fab-PE24 constructs, 4 days) was 100 [%], the IC50 (RPMI-8226 cells; RPMI-8226) was 153 nM and the IC50 (RPMI-8226 cells; RPMI-8226, 96 h) was 281 nM. The Max. killing (RPMI-8226 cells; [9]) was 100 [%] and the Max. killing (RPMI-8226 cells; [8]) was 100 [%].
Farletuzumab [reference compound] was tested, and the “Binding to huFolR2” value (human FolR2) was “−”, the “Binding to huFolR3” value (human FolR3) was “−” and the “Binding to huFolR1” value (human FolR1) was “+”. The “Binding to cyFolR1” value (cynomolgus FolR1) was “+”, the “Binding to muFolR1” value (murine FolR1) was “−” and the Kd [3] was 67.3 nM. For the same molecule, the ka [3] was 553000 M⁻¹ s⁻¹, the kd [3] was 0.0373 s⁻¹ and the ka [4] was 417000 M⁻¹ s⁻¹. It also gave a kd [4] of 0.023 s⁻¹, a ka [5] of 1.33e+06 M⁻¹ s⁻¹ and a kd [5] of 0.000868 s⁻¹. The Kd ([5]; read-out: Apparent KD, approximated 1:1 Langmuir fit) was 0.65 nM, the ka [6] was 1.23e+06 M⁻¹ s⁻¹ and the kd [6] was 0.0009 s⁻¹.
